Source: patent publication US20050054673A1, “Combination of phenylcarboxylic acid amides with beta-adrenoreceptor blockers and their use for the treatment of atrial arrhythmias” (Aventis Pharma Deutschland GmbH, priority 2003, published 2005)
Marks after values point to notes of the source that are not given here.

Test system: left atrium of the pig
Experiment: Refractory period in anaesthetized pigs (AERP, left atrium)
Assay type: in vivo
Conditions: for Effect on the refractory period (in words): single substances, Example 1 or 5 after 1 h infusion of 3 mg/kg/h; for Increase after Example 1 in ms: infusion 3 mg/kg/h, vs. control
Protocol: Investigation of the refractory period in anaesthetized pigs
The investigations were carried out in the anaesthetised pig as described by Knobloch et al. (Knobloch K., Brendel J., Peukert S., Rosenstein B., Busch A.-E., Wirth K.-J., “Electrophysiological and antiarrhythmic effects of the novel IKUR channel blockers, S9947 and S20951, on the left vs. right pig atrium in vivo in comparison with the IKr blockers dofetilide, azimilide, d, I-sotalol and ibutilide”, Naunyn-Schmiedeberg's Arch Pharmacol 2002, 366: 482-487). The action of beta-blockers and IKUR blockers on the refractory period of the left atrium was investigated. First, the action of the individual substances was tested, then the action of the combination of both individual substances.
Male pigs of native German breed of age 2-3 months and weight 23-30 kg were used.
The pigs were premedicated with 3 mL of Rompun® 2% ([…] 23.3 mg/mL=3 mg/kg; injected intramuscularly) and 6 mL of Hostaket® (ketamine 115 mg/mL=20 mg/kg; injected intramuscularly). Anesthesia was induced using an intravenous bolus injection of 5 mL of Narcoren® (pentobarbital 160 mg/mL=25-30 mg/kg; i.v.) and continuously supplied intravenously by means of a pentobarbital perfusor at 12-17 mg/kg/h. After tracheotomy and intubation, the animals were ventilated with oxygen by means of a respirator. A left-lateral thoracotomy was carried out in the fifth intercostal space. The lungs were retracted using sutures, the pericardium was opened and held using sutures so that the heart rocked in this. The tip of a MAP Pacing™ electrophysiology catheter (EP Technologies, Model 1675, Boston Scientific Corporation, 92257 La Garenne-Colombes Cedex, France) were then placed on the free wall of the left atrium in a right-angled position and fixed to the left atrium under constant pressure in a stand. The electrical stimulation was carried out using an external heart stimulator from Biotronik (UHS 20, Universal heart stimulator, Biotronik GmbH, 12359 Berlin, Germany).
Measurement of the atrial effective refractory period (AERP): The electrical atrial response to the external pacemaker stimulation was visualized by means of a mono phasic action potential (MAP), which was derived from the left atrium by means of the electrophysiology catheter. A conditioning stimulation cycle of 10 base intervals (S1) in a double stimulation amplitude followed a diastolic, prematurely coupled extrastimulus (S2, 1 ms pulse duration, 200 ms refractory period), which originated during a 5 ms decrement of a coupling interval, which was 30 ms above the expected effective refractory period (AERP). The 5 mS decrement in the coupling interval of the extrastimulus ran until the atrium no longer produced any response in the form of an action potential. The longest coupling interval which was no longer able to induce any atrial action potential was used as the effective refractory period. The refractory period was in each case investigated at three basal cycle length, 240, 300 and 400 ms).
Experimental groups: The sole action of atenolol (bolus administration of 1 mg/kg) on the refractory period was investigated in a separate group of pigs (n=5).

[1] = basal cycle length 240 ms, atenolol 1 mg/kg bolus i.v., n = 5
[2] = basal cycle length 300 ms, atenolol 1 mg/kg bolus i.v., n = 5
[3] = basal cycle length 400 ms, atenolol 1 mg/kg bolus i.v., n = 5

SMILES | Increase in ms of refractory period vs. control [1] | Refractory period, mean value [1] [milliseconds] | Increase in ms of refractory period vs. control [2] | Refractory period, mean value [2] [milliseconds] | Increase in ms of refractory period vs. control [3] | Refractory period, mean value [3] [milliseconds] | Effect on the refractory period (in words) | Refractory period, mean value (basal cycle length 240 ms, Example 1 infused 3 mg/kg/h, after 1 h atenolol 1 mg/kg bolus, n = 6) [milliseconds] | Increase after Example 1 in ms (basal cycle length 240 ms, n = 6) | Refractory period, mean value (basal cycle length 300 ms, Example 1 infused 3 mg/kg/h, after 1 h atenolol 1 mg/kg bolus, n = 6) [milliseconds] | Increase after Example 1 in ms (basal cycle length 300 ms, n = 6) | Refractory period, mean value (basal cycle length 400 ms, Example 1 infused 3 mg/kg/h, after 1 h atenolol 1 mg/kg bolus, n = 6) [milliseconds] | Increase after Example 1 in ms (basal cycle length 400 ms, n = 6)
CC(C)NCC(O)COc1ccc(CC(N)=O)cc1 (centres unmarked) [Atenolol, atenolol, reference compound] | 25* ms | 136 | 21* ms | 129 | 11* ms | 129 | – | – | – | – | – | – | –
CCCCS(=O)(=O)Nc1ccccc1C(=O)N[C@H](CC)c1ccc(OC)nc1 [Example 5, 2-(Butyl-1-sulfonylamino)-N-[1(R)-(6-methoxypyridin-3-yl)-propyl]benzamide] | – | – | – | – | – | – | increased to a stable level | – | – | – | – | – | –
COc1ccc(CC(=O)NCc2ccccc2-c2ccccc2C(=O)NCCc2cccnc2)cc1 [Example 1, 2′-{[2-(4-Methoxyphenyl)acetylamino]methyl}biphenyl-2-carboxylic acid (2-pyridin-3-ylethyl)amide] | – | – | – | – | – | – | increased to a stable level | 136 | 35^# ms | 149.5 | 40.7^# ms | 166.2 | 52.3^# ms
